Measured values: patent US20090105283A1, “3-HYDROQUINAZOLIN-4-ONE DERIVATIVES FOR USE AS STEAROYL CoA DESATURASE INHIBITORS” (priority 2007, published 2009)

Target: T1, stearoyl-CoA desaturase (SCD) (Rattus norvegicus, UniProt P07308)
T1 construct: The microsomes were quickly thawed and added to assay buffer so that a concentration of 0.4 mg/ml was achieved; from tissue
T1 sequence (P07308 1-358): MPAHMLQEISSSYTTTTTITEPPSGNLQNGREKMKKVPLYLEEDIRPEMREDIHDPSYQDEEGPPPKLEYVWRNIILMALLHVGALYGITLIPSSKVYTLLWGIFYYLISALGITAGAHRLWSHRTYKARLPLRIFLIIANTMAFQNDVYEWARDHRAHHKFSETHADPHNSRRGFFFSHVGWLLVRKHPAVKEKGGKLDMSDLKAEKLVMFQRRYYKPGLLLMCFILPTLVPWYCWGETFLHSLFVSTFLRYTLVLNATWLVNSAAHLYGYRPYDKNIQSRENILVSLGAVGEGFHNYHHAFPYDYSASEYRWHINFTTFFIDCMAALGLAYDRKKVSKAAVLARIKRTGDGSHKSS
Assay: SCD assay with rat liver microsomes ([3H]stearoyl CoA, adapted from Talamo and Bloch)
Assay type: biochemical
Settings: Table 1; rat liver microsomes 0.2 mg/ml assay final, [3H]stearoyl CoA substrate, 30 min preincubation, 45 min reaction, room temperature
Excerpt: Male Spraque Dawley Rats were placed on regimented fasting protocol for one week to stimulate SCD enzymatic activity. 48-hour periods were alternated between feeding and fasting to induce and down-regulate SCD activity with SCD activity being induced via carbohydrate rich diet prior to liver perfusion and collection.
The rats were anesthetized with Isoflurane inhalation anesthetic, the liver perfused with cold phosphate buffered saline (PBS), weighed, and chilled in cold homogenization buffer (250 mM sucrose, 10 mM Tris, 1 mM EDTA, pH 7.6.
The livers were finely minced and placed in homogenization tube. 40 mL of homogenization buffer was added to the homogenization tube and the liver homogenized and centrifuged in a pre-chilled […] for 10 min at 4° C.
Following centrifugation, the supernatant was collected and the pellet removed and discarded. The supernatant was centrifuge at 10,000 G for 35 minutes. Following centrifugation, the supernatant was collect and the pellet discarded. The supernatant was then centrifuged in a pre-chilled 45-Ti rotor at 130,000 G (41,000 RPM) for 90 minutes at 4° C.
The supernatant was then aspirated off and the collected microsomal pellet washed in 25 mL of Glycerol PBS (1×PBS 7.4, 20% Glycerol) and resuspended in 4-5 volumes of Glycerol PBS.
The protein concentration of the microsomal preparation was determined by BCA assay (Pierce) and the microsomes were aliquoted and stored at −80° C.
Biobeads were ground to a smaller size in a mortar and pestle and resuspended in 3.6% TCA. The beads were then filtered through […] mesh.
SCD was determined in the desaturase assay buffer. This assay buffer contained 0.1 M Tris buffer, pH 7.2, 2 mM NADH, 4.8 mM ATP, 0.5 mM CoA, 4.8 mM MgCl2, and 0.1% BSA.
1 μl of each compound of Formula I was added to an assay plate by a low volume (0.5-10 μL) multichannel pipette. A DMSO control was also prepared. The microsomes were quickly thawed and added to assay buffer so that a concentration of 0.4 mg/ml was achieved (0.2 mg/ml assay final). 50 μl of the microsome suspension in assay buffer was then added into each well in the compound assay plate, the plate was covered, and the microsomes preincubated with the compounds for 30 minutes on the orbital shaker, 50-75 rpm, at room temperature.
The reaction mixtures were then incubated for 45 minutes on the orbital shaker at 50-75 rpm at room temperature.
The reaction was terminated by the addition of 10 μl of 21% trichloroacetic acid (TCA) to the reaction mixture followed incubation on the orbital shaker for 30 minutes at 50-75 rpm at room temperature followed by centrifugation for 5 minutes at 3700 rpm.
50 μl of a 6% Bio-Bead suspension in H2O was added to the reaction mixture and the assay plate was sealed. The Bio-Bead mixture was incubated on the orbital shaker for 1 hour, 100-150 rpm at room temperature, and then the mixture was centrifuged at 2000 g for 5 minutes to pellet the Bio-Beads.
25 μl of the supernatant was harvested from each well and transferred to a detection plate. 100 μl of OptiPhase SuperMix scinitillation cocktail (containing sufficient NaOH to neutralize the TCA) was added and the solutions mixed by vigorous shaking (300-400 rpm) for 5 minutes at room temperature.

Row | SMILES | IC50 [nM]
1 | COc1ccc(Cn2cnc3ccc(NC(=O)COC(C)=O)cc3c2=O)cc1 [C, (N-{3-[(4-methoxyphenyl)methyl]-4-oxo-3-hydroquinazolin-6-yl}carbamoyl)methyl acetate] | 3500
2 | COc1ccc(Cn2cnc3ccc(NC(=O)CO)cc3c2=O)cc1 [CI, 2-hydroxy-N-{3-[(4-methoxyphenyl)methyl]-4-oxo(3-hydroquinazolin-6-yl)}acetamide] | 8220
3 | CC(=O)OCC(=O)Nc1ccc2c(=O)n(Cc3ccc(F)c(F)c3)cnc2c1 [CII, (N-{3-[(3,4-difluorophenyl)methyl]-4-oxo-3-hydroquinazolin-7-yl}carbamoyl)methyl acetate] | 7640
4 | O=C(CO)Nc1ccc2c(=O)n(Cc3ccc(F)c(F)c3)cnc2c1 [CIII, N-{3-[(3,4-difluorophenyl)methyl]-4-oxo(3-hydroquinazolin-7-yl)}-2-hydroxyacetamide] | 4390
5 | O=C(Nc1ccc2ncn(Cc3ccc(Cl)c(Cl)c3)c(=O)c2c1)OCc1ccccc1 [I, N-{3-[(3,4-dichlorophenyl)methyl]-4-oxo(3-hydroquinazolin-6-yl)}(phenylmethoxy)carboxamide] | 160
6 | O=C(CCc1ccccc1)Nc1ccc2ncn(Cc3ccc(Cl)c(Cl)c3)c(=O)c2c1 [II, N-{3-[(3,4-dichlorophenyl)methyl]-4-oxo(3-hydroquinazolin-6-yl)}-3-phenylpropanamide] | 2410
7 | CCCCCC(=O)Nc1ccc2ncn(Cc3ccc(Cl)c(Cl)c3)c(=O)c2c1 [III, N-{3-[(3,4-dichlorophenyl)methyl]-4-oxo-3-hydroquinazolin-6-yl}hexanamide] | 5310
8 | CCCCCNC(=O)Nc1ccc2ncn(Cc3ccc(Cl)c(Cl)c3)c(=O)c2c1 [IV, N-{3-[(3,4-dichlorophenyl)methyl]-4-oxo(3-hydroquinazolin-6-yl)}(pentylamino)carboxamide] | 3590
9 | CC(C)OC(=O)Nc1ccc2ncn(Cc3ccc(Cl)c(Cl)c3)c(=O)c2c1 [IX, N-{3-[(3,4-dichlorophenyl)methyl]-4-oxo(3-hydroquinazolin-6-yl)}(methylethoxy)carboxamide] | 14000
10 | COc1ccccc1OCC(=O)Nc1ccc2c(=O)n(Cc3ccc(Cl)c(Cl)c3)cnc2c1 [L, N-{3-[(3,4-dichlorophenyl)methyl]-4-oxo(3-hydroquinazolin-7-yl)}-2-(2-methoxyphenoxy)acetamide] | 1440
11 | O=C(COc1cccnc1)Nc1ccc2c(=O)n(Cc3ccc(Cl)c(Cl)c3)cnc2c1 [LI, N-{3-[(3,4-dichlorophenyl)methyl]-4-oxo(3-hydroquinazolin-7-yl)}-2-(3-pyridyloxy)acetamide] | 1450
12 | O=C(Nc1ccc2c(=O)n(Cc3ccc(Cl)c(Cl)c3)cnc2c1)OCc1ccccc1 [LII, N-{3-[(3,4-dichlorophenyl)methyl]-4-oxo(3-hydroquinazolin-7-yl)}(phenylmethoxy)carboxamide] | 50
13 | O=C(COc1ccccc1)Nc1ccc2c(=O)n(Cc3ccc(Cl)c(Cl)c3)cnc2c1 [LIII, N-{3-[(3,4-dichlorophenyl)methyl]-4-oxo(3-hydroquinazolin-7-yl)}-2-phenoxyacetamide] | 1690
14 | O=C(CSc1ccncc1)Nc1ccc2ncn(Cc3ccc(Cl)c(Cl)c3)c(=O)c2c1 [LIV, N-{3-[(3,4-dichlorophenyl)methyl]-4-oxo(3-hydroquinazolin-6-yl)}-2-(4-pyridylthio)acetamide] | 2560
15 | O=C(Nc1ccc2c(=O)n(Cc3cccc(Cl)c3)cnc2c1)OCc1cccnc1 [LIX, N-{3-[(3-chlorophenyl)methyl]-4-oxo(3-hydroquinazolin-7-yl)}(3-pyridylmethoxy)carboxamide] | 280
16 | O=C(CSc1ncccn1)Nc1ccc2ncn(Cc3ccc(Cl)c(Cl)c3)c(=O)c2c1 [LV, N-{3-[(3,4-dichlorophenyl)methyl]-4-oxo(3-hydroquinazolin-6-yl)}-2-pyrimidin-2-ylthioacetamide] | 5420
17 | O=C(CSc1ccc(Cl)cc1)Nc1ccc2ncn(Cc3ccc(Cl)c(Cl)c3)c(=O)c2c1 [LVI, N-{3-[(3,4-dichlorophenyl)methyl]-4-oxo(3-hydroquinazolin-6-yl)}-2-(4-chlorophenylthio)acetamide] | 2810
18 | O=C(Nc1ccc2ncn(Cc3ccc(Cl)cc3)c(=O)c2c1)c1ccc(Cn2ccnc2)o1 [LVII, N-{3-[(4-chlorophenyl)methyl]-4-oxo(3-hydroquinazolin-6-yl)}[5-(imidazolylmethyl)(2-furyl)]carboxamide] | 12000
19 | O=C(Nc1ccc2c(=O)n(Cc3cccc(Cl)c3)cnc2c1)OCc1ccccc1 [LVIII, N-{3-[(3-chlorophenyl)methyl]-4-oxo(3-hydroquinazolin-7-yl)}(phenylmethoxy)carboxamide] | 250
20 | O=C(CSCc1ccccc1)Nc1ccc2ncn(Cc3ccc(Cl)c(Cl)c3)c(=O)c2c1 [LX, N-{3-[(3,4-dichlorophenyl)methyl]-4-oxo(3-hydroquinazolin-6-yl)}-2-(phenylmethylthio)acetamide] | 6600
21 | COc1ccccc1COC(=O)Nc1ccc2c(=O)n(Cc3ccc(Cl)c(Cl)c3)cnc2c1 [LXI, N-{3-[(3,4-dichlorophenyl)methyl]-4-oxo(3-hydroquinazolin-7-yl)}[(2-methoxyphenyl)methoxy]carboxamide] | 700
22 | O=C(CO)Nc1ccc2ncn(Cc3ccc(Cl)c(Cl)c3)c(=O)c2c1 [LXII, N-{3-[(3,4-dichlorophenyl)methyl]-4-oxo(3-hydroquinazolin-6-yl)}-2-hydroxyacetamide] | 230
23 | O=C(Nc1ccc2ncn(Cc3ccc(Cl)c(Cl)c3)c(=O)c2c1)OCc1ccco1 [LXIII, N-{3-[(3,4-dichlorophenyl)methyl]-4-oxo(3-hydroquinazolin-6-yl)}(2-furylmethoxy)carboxamide] | 440
24 | CC(=O)OCC(=O)Nc1ccc2c(=O)n(Cc3ccc(Cl)c(Cl)c3)cnc2c1 [LXIV, (N-{3-[(3,4-dichlorophenyl)methyl]-4-oxo-3-hydroquinazolin-7-yl}carbamoyl)methyl acetate] | 180
25 | O=C(Nc1ccc2c(=O)n(Cc3cccc(F)c3)cnc2c1)OCc1ccccc1 [LXIX, N-{3-[(3-fluorophenyl)methyl]-4-oxo(3-hydroquinazolin-7-yl)}(phenylmethoxy)carboxamide] | 840
26 | CC(=O)OCC(=O)Nc1ccc2c(=O)n(Cc3cccc(Cl)c3)cnc2c1 [LXV, (N-{3-[(3-chlorophenyl)methyl]-4-oxo-3-hydroquinazolin-7-yl}carbamoyl)methyl acetate] | 27100
27 | CC(=O)OCC(=O)Nc1ccc2c(=O)n(Cc3ccc(Cl)cc3)cnc2c1 [LXVI, (N-{3-[(4-chlorophenyl)methyl]-4-oxo-3-hydroquinazolin-7-yl}carbamoyl)methyl acetate] | 16400
28 | COCCOC(=O)Nc1ccc2c(=O)n(Cc3ccc(Cl)c(Cl)c3)cnc2c1 [LXVII, N-{3-[(3,4-dichlorophenyl)methyl]-4-oxo(3-hydroquinazolin-7-yl)}(2-methoxyethoxy)carboxamide] | 880
29 | O=C(CO)Nc1ccc2c(=O)n(Cc3cccc(Cl)c3)cnc2c1 [LXVIII, N-{3-[(3-chlorophenyl)methyl]-4-oxo(3-hydroquinazolin-7-yl)}-2-hydroxyacetamide] | 2690
30 | O=C(Nc1ccc2ncn(Cc3ccc(Cl)c(Cl)c3)c(=O)c2c1)Oc1ccc(Cl)cc1 [LXX, N-{3-[(3,4-dichlorophenyl)methyl]-4-oxo(3-hydroquinazolin-6-yl)}(4-chlorophenoxy)carboxamide] | 3220
